Data published in publication PMC6269887, “Novel Substituted Heteroaromatic Piperazine and Piperidine Derivatives as Inhibitors of Human Enterovirus 71 and Coxsackievirus A16” (Molecules, 2013).
Where “and” joins values, the source holds several entries; their conditions need not be identical. Equal entries are not always repeated. Where two headings read alike, the source gives them in different places.

Columns and labels:
[1] = system: Vero cells; experiment: Cytotoxicity assay on Vero cells; type: cell-based; details: for TC50: 96 h, concentration reducing cell viability to 50%
Method: The Vero cells treated with the test compounds were incubated at 37 °C for 96 h. After incubation, the cells were harvested and counted.

[2] = system: EV71; experiment: Neutralization test: inhibition of EV71-induced CPE on Vero cells; type: cell-based, Enterovirus 71 (Shenzhen 98, shzh01-8); details: for IC50: CPE on Vero cells, 100 TCID50, Reed-Muench; for EV71 SI: selectivity index
Method: (§1) The anti-EV71 activity, anti-CVA16 activity, and cytotoxicity of the compounds on the EV71 test strain (Shenzhen 98, shzh01-8) and CVA16 (laboratory viral culture) were evaluated by using cell culture cytopathic effect assays.
(§2) This assay measured the ability of the test compounds to inhibit the CPE induced by EV71 and CVA16 on Vero cells. The 96-well tissue culture plates were seeded with 20,000 Vero cells/mL. The plates were incubated for 24 h at 37 °C. The virus (100 TCID50) mixed with different concentrations of the test compounds was added to the cells, which were incubated at 37 °C for 2 h. After adsorption, the infected cells were overlaid with 50 μL of Dulbecco’s modified Eagle’s medium with 5% fetal bovine serum, and 2% DMSO. […] All assays were performed in triplicate.

[3] = system: CVA16; experiment: Neutralization test: inhibition of CVA16-induced CPE on Vero cells; type: cell-based, Coxsackievirus A16 (laboratory viral culture); details: for IC50: CPE on Vero cells, 100 TCID50, Reed-Muench; for CVA16 SI: selectivity index
Method: as §1, §2

[4] = design: method as in PMID 23519203; details: pirodavir; cited from earlier work
[5] = system: EV71; design: method as in PMID 23519203; details: pirodavir; cited from earlier work

| IC50 ([2]; Enterovirus A, EV71, Vero) | IC50 ([3]; Enterovirus A, CVA16, Vero) | melting point | IC50 [2] | IC50 [3] | Compound | TC0 [1] | TC50 [1] | EV71 SI [2] | CVA16 SI [3] | TC50 [4] | IC50 [5] | SI [5] |
| --- | --- | --- | --- | --- | --- | --- | --- | --- | --- | --- | --- | --- |
| 1.2 µM | 1.4 ± 0.1 µM |  |  |  | CCCCc1ccc(OCCN2CCN(c3cc(Cl)nnc3Cl)CC2)cc1 [Compound 9a] | 7.7 ± 0.3 µM | 19.2 ± 0.7 µM | 16.1 | 13.8 |  |  |  |
| 21.6 ± 1.4 µM | > 29.7 µM |  |  | > 29.7 µM | Clc1cc(N2CCN(CCOc3ccc(-n4cnnc4)cc3)CC2)c(Cl)nn1 [Compound 9b] | 29.74 µM and 29.7 ± 2.2 µM | 189 ± 17.3 µM | 8.7 |  |  |  |  |
| > 31.5 µM | 10.8 ± 0.3 µM |  |  |  | CCOc1ccc(OCCN2CCN(c3cc(Cl)nnc3Cl)CC2)cc1 [Compound 9c] | 31.5 ± 2.1 µM | 62.9 ± 2.4 µM |  | 5.8 |  |  |  |
| > 31.5 µM | 22.1 ± 1.1 µM |  |  |  | COC(=O)c1ccc(OCCC2CCN(c3cc(Cl)nnc3Cl)CC2)cc1 [Compound 9d] | 30.5 ± 2.0 µM | 193 ± 19.3 µM |  | 8.7 |  |  |  |
| 25.4 ± 1.7 µM | 16 ± 0.9 µM |  |  |  | CCOC(=O)c1ccc(OCCC2CCN(c3ccnnc3Cl)CC2)nc1 [Compound 9f] | 128 ± 9.5 µM | >512 µM | >20.2 | >32.0 |  |  |  |

The remaining lines, values behind:

| Compound | IC50 ([2]; Enterovirus A, EV71, Vero) | IC50 ([3]; Enterovirus A, CVA16, Vero) | melting point | IC50 [2] | IC50 [3] | TC0 [1] | TC50 [1] | EV71 SI [2] | CVA16 SI [3] | TC50 [4] | IC50 [5] | SI [5] |
| --- | --- | --- | --- | --- | --- | --- | --- | --- | --- | --- | --- | --- |
| COc1ccc(OCCCCCN2CCN(c3nccs3)CC2)cc1 [Compound 8a, 2-(4-(5-(4-Methoxyphenoxy)pentyl)piperazin-1-yl)thiazole] | 100 ± 9 µM | 69.2 ± 5.5 µM |  |  |  | 138 ± 9.6 µM | 277 ± 2.2 µM | 2.8 | 4.0 |  |  |  |
| CCOc1ccc(OCCCCCN2CCN(c3nccs3)CC2)cc1 [Compound 8b, 2-(4-(5-(4-Ethoxyphenoxy)pentyl)piperazin-1-yl)thiazole] | 21 ± 1.2 µM | 5.3 ± 0.3 µM | 79 to 81 °C |  |  | 33.3 ± 3.9 µM | 66.6 ± 1.0 µM | 3.2 | 12.7 |  |  |  |
| CCOc1ccc(OCCCCCCN2CCN(c3nccs3)CC2)cc1.Cl [Compound 8c, 2-(4-(6-(4-Ethoxyphenoxy)hexyl)piperazin-1-yl)thiazole hydrochloride] | 4.3 ± 0.1 µM | 6.8 ± 0.4 µM | 222 to 224 °C |  |  | 6.8 ± 0.1 µM | 54.1 ± 8.1 µM | 12.7 | 8.0 |  |  |  |
| CCc1ccc(OCCCCCCN2CCN(c3nccs3)CC2)cc1.Cl [Compound 8d, 2-(4-(6-(4-Ethylphenoxy)hexyl)piperazin-1-yl)thiazole hydrochloride] | 4.4 ± 0.3 µM | 14 ± 0.5 µM | 240 to 242 °C |  |  | 28.0 ± 2.5 µM | 56.0 ± 3.3 µM | 12.7 | 4.0 |  |  |  |
| CC(C)c1ccc(OCCCCCCN2CCN(c3nccs3)CC2)cc1.Cl [Compound 8e, 2-(4-(6-(4-Isopropylphenoxy)hexyl)piperazin-1-yl)thiazole hydrochloride] | 4.28 µM | 1.24 µM | 135 to 137 °C | 4.3 µM | 1.2 ± 0.5 µM | 6.8 ± 0.8 µM | 43.08 µM and 43.1 ± 4.7 µM | 10.1 | 34.8 |  |  |  |
| CC(C)(C)c1ccc(OCCCCCCN2CCN(c3nccs3)CC2)cc1 [Compound 8f, 2-(4-(6-(4-tert-Butylphenoxy)hexyl)piperazin-1-yl)thiazole] | 3.9 ± 0.1 µM | 7.8 ± 0.6 µM | 30 to 32 °C |  |  | 7.8 ± 0.4 µM | 15.6 ± 0.3 µM | 4.0 | 2.0 |  |  |  |
| CCOC(=O)c1ccc(OCCC2CCN(c3ccc(C)nn3)CC2)cc1 [pirodavir] |  |  |  |  |  |  |  |  |  | 31 ± 2.2 µM | 1.2 ± 0.2 µM | 25 |
